Question: For OCCCCOCCCCOCCCCOCCCCO, which melting point is on record?
Answer: 22 °C

Question: Which melting point does the source give for CCCCCCCCCCCCCCCCOc1ccc(-c2nc(CC(=O)O)c(OCC)o2)cc1 here?
Answer: 89 to 91 °C

Question: With CCOC(=O)c1ncc2[nH]c3c([N+](=O)[O-])cc([N+](=O)[O-])cc3c2n1 as the compound, how does the melting point read?
Answer: 295 to 299 °C

Question: For COC(=O)C(C)(c1ccc([N+](=O)[O-])cc1)c1cc(C)c(C(=O)c2ccc(Cl)cc2)n1C (centres undefined), which melting point is on record?
Answer: 181 to 182 °C

Question: For Cc1ccccc1C(CCC(=O)O)Oc1cc(OCc2ccsc2)ccc1C(=O)C(=O)O (racemic), which melting point is on record?
Answer: 173 to 175 °C

Question: Which melting point does the source give for CCN(CC)C(=O)Oc1cc(-c2ccccc2)c2ccccc2n1 here?
Answer: 64 °C

Question: For NCCc1ccc(Cl)c(Cl)c1CCO, which melting point is on record?
Answer: 79 to 80 °C

Question: Which melting point does the source give for CCOc1ccc(CNC(=O)n2cc(F)c(=O)[nH]c2=O)cc1OC here?
Answer: 153 °C

Question: Which melting point does the source give for Cc1ccc(COc2ncc(F)c(NS(=O)(=O)c3ccc(C)cc3)n2)cc1 here?
Answer: 120 to 122 °C

Question: Which melting point does the source give for CN1CCC(O)(c2cn(-c3ccnc(NC4CCCC4)n3)c(-c3cccc(C(F)(F)F)c3)n2)CC1 here?
Answer: 189 to 193 °C

Question: Which melting point does the source give for Cc1ccc(CC(C)NCC(O)c2ccccc2)cc1 (centres undefined) here?
Answer: 74 to 94 °C

Question: Which melting point does the source give for CCC(=O)NCC[C@@H]1CCc2ccc3c(c21)CCO3 here?
Answer: 113 to 115 °C

Question: Which melting point does the source give for COc1cc(CC(=O)NCCOc2ccc(C(=O)O)cc2[N+](=O)[O-])ccc1N(C(N)=O)c1ccccc1C here?
Answer: 112 to 115 °C

Question: For CCOC(=O)c1cnc(Oc2ccccc2)s1, which melting point is on record?
Answer: 67 °C

Question: For Cc1ccc(N)c(C(N)=O)c1, which melting point is on record?
Answer: 171 to 174 °C

Question: For CC(C)(C)OC(=O)NCCNC(=O)c1ncsc1Br, which melting point is on record?
Answer: 108 to 111 °C

Question: For O=c1nc(-c2ccc(C(F)(F)F)cc2)sc2ccccc12, which melting point is on record?
Answer: 122 to 123 °C

Question: With Clc1c(OCC2CO2)cccc1N1CCCCC1 (centres undefined) as the compound, how does the melting point read?
Answer: 55 to 57 °C

Question: For COC(=O)COc1cccc2c1S[C@@H](c1ccc(OC)cc1)[C@@H](O)C(=O)N2CCN(C)C (racemic), which melting point is on record?
Answer: 152 to 160 °C

Question: For O=C1CCC(N2C(=O)c3cccc(OCc4ccc(CN5CCN(c6ccc(F)cc6)CC5)cc4)c3C2=O)C(=O)N1 (centres undefined), which melting point is on record?
Answer: 135 to 137 °C

Question: Which melting point does the source give for CC(=O)c1cccc(C)c1NC(=O)CCl here?
Answer: 88 to 89 °C

Question: With O=S1(=O)c2ccccc2-c2[nH]nc(-c3ccccc3)c21 as the compound, how does the melting point read?
Answer: 266 to 268 °C

Question: With O=C(O)c1cc(=O)cc(-c2ccc(OCc3ccccc3)cc2)o1 as the compound, how does the melting point read?
Answer: 235 °C

Question: With O=C(O)c1ccc(OCc2ccc(Cl)c(Cl)c2)cc1 as the compound, how does the melting point read?
Answer: 222 to 223 °C

Question: With O=C1CC2(CCCC2)CC(=O)N1CCCCN1CCN(c2noc3cc(Cl)ccc23)CC1 as the compound, how does the melting point read?
Answer: 128 °C

Question: With N#CCc1ncccc1[N+](=O)[O-] as the compound, how does the melting point read?
Answer: 106 to 108 °C

Question: With N#CCOc1ccc2cc(-c3cnc(Cc4ccccc4)o3)ccc2c1 as the compound, how does the melting point read?
Answer: 184 to 187 °C

Question: With COc1cc([N+](=O)[O-])ccc1CBr as the compound, how does the melting point read?
Answer: 94 to 96 °C

Question: With CC(=Cc1ccc(F)cc1)COc1cc(C)c(NC=O)c(C)c1C as the compound, how does the melting point read?
Answer: 164 to 165 °C

Question: For CCCS(=O)(=O)c1cc([C@H]2CC[C@H](c3cc(OC)c(OC)c(OC)c3)O2)cc(OC)c1OCCBr (relative stereo), which melting point is on record?
Answer: 135 to 136 °C

Question: With Nc1cccc(-c2ccc(CCNCc3ccc(Cl)c(Cl)c3)c3ccccc23)n1 as the compound, how does the melting point read?
Answer: 145 to 170 °C

Question: With NCc1ccc(N2CCN(c3ccc(CCC(=O)O)cc3)C2=O)cc1 as the compound, how does the melting point read?
Answer: > 260 °C

Question: For O=C(O)CNC(=O)c1cc(Br)nc(Br)c1, which melting point is on record?
Answer: 151 to 152 °C

Question: Which melting point does the source give for CC1=C(C(=O)OCCO)C(c2ccccc2C(F)(F)F)C(C(=O)OCCO)=C(C)N1 here?
Answer: 125 to 127 °C

Question: Which melting point does the source give for COC(=O)Nc1ccc2ccccc2c1-c1c(P(c2ccccc2)c2ccccc2)ccc2ccccc12 here?
Answer: 92.1 °C

Question: For CCCCOc1c(CNC(=O)OC(C)(C)C)n(CC(C)C)c(=O)c2ccc(O)cc12, which melting point is on record?
Answer: 185 to 186 °C

Question: For CCCc1ncc(/C=C(\Cc2cccs2)C(=O)O)n1Cc1ccccc1[N+](=O)[O-], which melting point is on record?
Answer: 223 °C

Question: Which melting point does the source give for CC(=O)Oc1ccccc1C(=O)Oc1nc[nH]c1C(N)=O here?
Answer: 143 to 145 °C

Question: Which melting point does the source give for O=C(Nc1ccc2nc3[nH]c(=O)[nH]c3cc2c1)c1ccccc1 here?
Answer: > 300 °C

Question: For CC(=O)N(C)c1cccc(-c2ccc3nncn3n2)c1, which melting point is on record?
Answer: 166 to 169 °C

Question: With O=C1NC2CCC(Cc3ccc(O)cc3)CC2CC1CO (centres undefined) as the compound, how does the melting point read?
Answer: 126 to 128 °C

Question: For C=CC(=O)Nc1cccc2c1sc1c(Nc3cccc(Br)c3)c(C#N)cnc12, which melting point is on record?
Answer: 286 to 287 °C

Question: Which melting point does the source give for O=C(O)CCCCCn1sc2ccccc2c1=O here?
Answer: 59 to 61 °C

Question: With C=C1c2ccccc2CC12CCC(N1CCCCC1)CC2 (centres undefined) as the compound, how does the melting point read?
Answer: 93 to 95 °C

Question: For CCOC(=O)c1sc(-c2ccc(C#N)cc2)nc1C, which melting point is on record?
Answer: 144 °C

Question: Which melting point does the source give for Clc1ccc([C@@]2(Cn3ccnc3)OC[C@H](COc3ccc4c(c3)CCNC4)O2)c(Cl)c1 (racemic) here?
Answer: 143 to 145 °C

Question: Which melting point does the source give for C=CC(=O)NC1=CC(O)(C(C)=O)C(C(=O)O)C=C1 (centres undefined) here?
Answer: 171 °C

Question: With CCOC(=O)c1c2n(c3c(F)c(N4CCC(N(C)C)C4)c(F)cc3c1=O)C(C)S2 (centres undefined) as the compound, how does the melting point read?
Answer: 165 to 168 °C

Question: For Nc1nc(-c2ccccc2)c(CCBr)c2ncnn12, which melting point is on record?
Answer: 193 to 194 °C

Reference: a melting point compilation (Tetko et al.; mined from patent text by program, amines drawn as free bases though some values may be those of a salt)
